Measured values published in US9771369B2, “Compounds and methods for kinase modulation, and indications therefor” (Plexxikon Inc., priority 2014, dated 2017).

What follows are compounds tested against c-Kit kinase (Homo sapiens (Human), UniProt P10721) (assay: c-Kit biochemical assay (AlphaScreen kinase activity)).
c-Kit kinase, sequence (P10721 26-976): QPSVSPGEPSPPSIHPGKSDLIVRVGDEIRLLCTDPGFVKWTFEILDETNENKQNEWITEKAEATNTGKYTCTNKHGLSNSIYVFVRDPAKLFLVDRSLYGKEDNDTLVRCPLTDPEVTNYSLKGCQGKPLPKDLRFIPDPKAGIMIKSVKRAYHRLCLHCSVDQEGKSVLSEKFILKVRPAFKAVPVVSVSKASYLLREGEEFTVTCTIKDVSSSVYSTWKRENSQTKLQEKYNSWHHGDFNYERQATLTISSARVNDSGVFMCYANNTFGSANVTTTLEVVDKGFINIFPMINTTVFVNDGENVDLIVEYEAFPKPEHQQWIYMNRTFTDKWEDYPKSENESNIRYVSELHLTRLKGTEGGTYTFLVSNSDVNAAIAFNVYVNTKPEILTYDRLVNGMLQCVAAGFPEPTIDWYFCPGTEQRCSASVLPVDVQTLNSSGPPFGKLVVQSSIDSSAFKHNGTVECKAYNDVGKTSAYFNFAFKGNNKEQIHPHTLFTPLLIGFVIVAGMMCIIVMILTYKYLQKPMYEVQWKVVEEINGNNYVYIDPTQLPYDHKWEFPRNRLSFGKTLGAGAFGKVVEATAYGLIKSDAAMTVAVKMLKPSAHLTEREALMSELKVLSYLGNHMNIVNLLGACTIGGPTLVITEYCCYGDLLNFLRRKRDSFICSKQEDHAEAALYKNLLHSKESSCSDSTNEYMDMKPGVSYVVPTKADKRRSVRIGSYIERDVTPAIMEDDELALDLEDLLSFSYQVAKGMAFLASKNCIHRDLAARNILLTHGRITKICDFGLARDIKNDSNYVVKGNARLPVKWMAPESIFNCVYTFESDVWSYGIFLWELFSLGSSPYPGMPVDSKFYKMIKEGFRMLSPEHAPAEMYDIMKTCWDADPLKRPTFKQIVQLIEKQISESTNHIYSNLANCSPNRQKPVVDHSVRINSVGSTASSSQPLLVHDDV
Summary of the method: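 IC50 values come from 8-point, 1:3 compound titrations measuring inhibition of peptide phosphorylation by c-Kit (commercial or His-tagged E. coli-expressed) over 1 h at room temperature, read by AlphaScreen PY30/streptavidin beads. Low-ATP version: 10 μM ATP, 100 nM biotin-(E4Y)3; high-ATP version: 100 μM ATP, 30 nM biotin-(E4Y)10.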
COc1ccc(-c2[nH]c(C3CCN(c4ncnc5[nH]c(C)cc45)CC3)nc2C)cc1C [P-3128, 4-[4-[5-(4-methoxy-3-methyl-phenyl)-4-methyl-1H-imidazol-2-yl]-1-piperidyl]-6-methyl-7H-pyrrolo[2,3-d]pyrimidine] was tested, and the IC50 was 1 to 10 µM. COc1cc(-c2[nH]c(C3CCN(c4ncnc5[nH]c(C)cc45)CC3)nc2C)ccc1C [P-3129, 4-[4-[5-(3-methoxy-4-methyl-phenyl)-4-methyl-1H-imidazol-2-yl]-1-piperidyl]-6-methyl-7H-pyrrolo[2,3-d]pyrimidine] gave an IC50 of 1 to 10 µM. For COc1ccc(-c2[nH]c(C3CCN(c4ncnc5[nH]c(C)cc45)CC3)nc2C)cc1 [P-3130, 4-[4-[5-(4-methoxyphenyl)-4-methyl-1H-imidazol-2-yl]-1-piperidyl]-6-methyl-7H-pyrrolo[2,3-d]pyrimidine], the IC50 was 1 to 10 µM. For COc1cccc(-c2[nH]c(C3CCN(c4ncnc5[nH]c(C)cc45)CC3)nc2C)c1 [P-3131, 4-[4-[5-(3-methoxyphenyl)-4-methyl-1H-imidazol-2-yl]-1-piperidyl]-6-methyl-7H-pyrrolo[2,3-d]pyrimidine], the IC50 was 1 to 10 µM. Cc1nc(C2CCN(c3ncnc4[nH]c(-c5ccc(C#N)cc5)cc34)CC2)[nH]c1-c1ccc2c(c1)OCCO2 [P-3132, 4-[4-[4-[5-(2,3-dihydro-1,4-benzodioxin-6-yl)-4-methyl-1H-imidazol-2-yl]-1-piperidyl]-7H-pyrrolo[2,3-d]pyrimidin-6-yl]benzonitrile] showed an IC50 of 0.0001 to 1 µM. For Cc1nc(C2CCN(c3ncnc4[nH]c(-c5cnn(C(F)F)c5)cc34)CC2)[nH]c1-c1ccc2c(c1)OCCO2 [P-3133, 6-[1-(difluoromethyl)pyrazol-4-yl]-4-[4-[5-(2,3-dihydro-1,4-benzodioxin-6-yl)-4-methyl-1H-imidazol-2-yl]-1-piperidyl]-7H-pyrrolo[2,3-d]pyrimidine], the IC50 was 0.0001 to 1 µM. For COc1cc(-c2cc3c(N4CCC(c5nc(C(F)(F)F)c(-c6ccc(C)cc6)[nH]5)CC4)ncnc3[nH]2)ccn1 [P-3134, 6-(2-methoxy-4-pyridyl)-4-[4-[5-(p-tolyl)-4-(trifluoromethyl)-1H-imidazol-2-yl]-1-piperidyl]-7H-pyrrolo[2,3-d]pyrimidine], the IC50 was 0.0001 to 1 µM. For Cc1ccc(-c2[nH]c(C3CCN(c4ncnc5[nH]c(-c6ccc(F)cc6)cc45)CC3)nc2C(F)(F)F)cc1 [P-3135, 6-(4-fluorophenyl)-4-[4-[5-(p-tolyl)-4-(trifluoromethyl)-1H-imidazol-2-yl]-1-piperidyl]-7H-pyrrolo[2,3-d]pyrimidine], the IC50 was 0.0001 to 1 µM. Cc1nc(C2CCN(c3ncnc4[nH]c(-c5ccc(F)cc5)cc34)CC2)[nH]c1-c1ccc(C(F)(F)F)cc1 [P-3136, 6-(4-fluorophenyl)-4-[4-[4-methyl-5-[4-(trifluoromethyl)phenyl]-1H-imidazol-2-yl]-1-piperidyl]-7H-pyrrolo[2,3-d]pyrimidine] was tested, and the IC50 was 1 to 10 µM. In the case of Cc1nc(C2CCN(c3ncnc4[nH]c(-c5ccc(C#N)cc5)cc34)CC2)[nH]c1-c1ccc(C(F)(F)F)cc1 [P-3137, 4-[4-[4-[4-methyl-5-[4-(trifluoromethyl)phenyl]-1H-imidazol-2-yl]-1-piperidyl]-7H-pyrrolo[2,3-d]pyrimidin-6-yl]benzonitrile], the IC50 is reported as 1 to 10 µM. Cc1nc(C2CCN(c3ncnc4[nH]c(-c5cnn(C(F)F)c5)cc34)CC2)[nH]c1-c1ccc2c(c1)OCO2 [P-3138, 4-[4-[5-(1,3-benzodioxol-5-yl)-4-methyl-1H-imidazol-2-yl]-1-piperidyl]-6-[1-(difluoromethyl)pyrazol-4-yl]-7H-pyrrolo[2,3-d]pyrimidine] gave an IC50 of 0.0001 to 1 µM. CCOc1ccc(-c2[nH]c(C3CCN(c4ncnc5[nH]c(-c6cnn(C(F)F)c6)cc45)CC3)nc2C)cc1C [P-3139, 6-[1-(difluoromethyl)pyrazol-4-yl]-4-[4-[5-(4-ethoxy-3-methyl-phenyl)-4-methyl-1H-imidazol-2-yl]-1-piperidyl]-7H-pyrrolo[2,3-d]pyrimidine] gave an IC50 of 0.0001 to 1 µM. Compound CCC1(c2nc(C)c(-c3ccc(OC)cc3)[nH]2)CCN(c2ncnc3[nH]c(C)cc23)CC1 [P-3140, 4-[4-ethyl-4-[5-(4-methoxyphenyl)-4-methyl-1H-imidazol-2-yl]-1-piperidyl]-6-methyl-7H-pyrrolo[2,3-d]pyrimidine] has an IC50 of 1 to 10 µM. Work on CCC1(c2nc(C)c(-c3ccc(OC)c(C)c3)[nH]2)CCN(c2ncnc3[nH]c(C)cc23)CC1 [P-3141, 4-[4-ethyl-4-[5-(4-methoxy-3-methyl-phenyl)-4-methyl-1H-imidazol-2-yl]-1-piperidyl]-6-methyl-7H-pyrrolo[2,3-d]pyrimidine] yielded an IC50 of 1 to 10 µM. CCOc1ccc(-c2[nH]c(C3(CC)CCN(c4ncnc5[nH]c(C)cc45)CC3)nc2C)cc1C [P-3142, 4-[4-[5-(4-ethoxy-3-methyl-phenyl)-4-methyl-1H-imidazol-2-yl]-4-ethyl-1-piperidyl]-6-methyl-7H-pyrrolo[2,3-d]pyrimidine] showed an IC50 of 1 to 10 µM. In the case of CCC1(c2nc(C)c(-c3ccc4c(c3)OCO4)[nH]2)CCN(c2ncnc3[nH]c(C)cc23)CC1 [P-3143, 4-[4-[5-(1,3-benzodioxol-5-yl)-4-methyl-1H-imidazol-2-yl]-4-ethyl-1-piperidyl]-6-methyl-7H-pyrrolo[2,3-d]pyrimidine], the IC50 is reported as 1 to 10 µM. With CCC1(c2nc(C)c(-c3ccc4c(c3)OCCO4)[nH]2)CCN(c2ncnc3[nH]c(C)cc23)CC1 [P-3144, 4-[4-[5-(2,3-dihydro-1,4-benzodioxin-6-yl)-4-methyl-1H-imidazol-2-yl]-4-ethyl-1-piperidyl]-6-methyl-7H-pyrrolo[2,3-d]pyrimidine] the IC50 was 1 to 10 µM. In the case of CCOc1ccc(-c2[nH]c(C3(CC)CCN(c4ncnc5[nH]c(C)cc45)CC3)nc2C)cc1 [P-3145, 4-[4-[5-(4-ethoxyphenyl)-4-methyl-1H-imidazol-2-yl]-4-ethyl-1-piperidyl]-6-methyl-7H-pyrrolo[2,3-d]pyrimidine], the IC50 is reported as 1 to 10 µM. In the case of COc1ccc(-c2[nH]c(C3CCN(c4ncnc5[nH]c(-c6ccnc(OC)c6)cc45)CC3)nc2C(F)(F)F)cc1 [P-3146, 4-[4-[5-(4-methoxyphenyl)-4-(trifluoromethyl)-1H-imidazol-2-yl]-1-piperidyl]-6-(2-methoxy-4-pyridyl)-7H-pyrrolo[2,3-d]pyrimidine], the IC50 is reported as 0.0001 to 1 µM. For COc1ccc(-c2[nH]c(C3CCN(c4ncnc5[nH]c(-c6ccc(C#N)cc6)cc45)CC3)nc2C(F)(F)F)cc1 [P-3148, 4-[4-[4-[5-(4-methoxyphenyl)-4-(trifluoromethyl)-1H-imidazol-2-yl]-1-piperidyl]-7H-pyrrolo[2,3-d]pyrimidin-6-yl]benzonitrile], the IC50 was 0.0001 to 1 µM. For COc1cc(-c2cc3c(N4CCC(c5nc(C)c(-c6ccc(C(F)(F)F)cc6)[nH]5)CC4)ncnc3[nH]2)ccn1 [P-3149, 6-(2-methoxy-4-pyridyl)-4-[4-[4-methyl-5-[4-(trifluoromethyl)phenyl]-1H-imidazol-2-yl]-1-piperidyl]-7H-pyrrolo[2,3-d]pyrimidine], the IC50 was 1 to 10 µM. Compound Cc1cc2c(N3CCC(C)(c4nc(C)c(-c5ccc6c(c5)OCO6)[nH]4)CC3)ncnc2[nH]1 [P-3150, 4-[4-[5-(1,3-benzodioxol-5-yl)-4-methyl-1H-imidazol-2-yl]-4-methyl-1-piperidyl]-6-methyl-7H-pyrrolo[2,3-d]pyrimidine] has an IC50 of 1 to 10 µM. For Cc1cc2c(N3CCC(C)(c4nc(C)c(-c5ccc6c(c5)OCCO6)[nH]4)CC3)ncnc2[nH]1 [P-3151, 4-[4-[5-(2,3-dihydro-1,4-benzodioxin-6-yl)-4-methyl-1H-imidazol-2-yl]-4-methyl-1-piperidyl]-6-methyl-7H-pyrrolo[2,3-d]pyrimidine], the IC50 was 1 to 10 µM. Work on Cc1cc2c(N3CCC(C)(c4nc(C)c(-c5ccc6c(c5)OC(F)(F)O6)[nH]4)CC3)ncnc2[nH]1 [P-3152, 4-[4-[5-(2,2-difluoro-1,3-benzodioxol-5-yl)-4-methyl-1H-imidazol-2-yl]-4-methyl-1-piperidyl]-6-methyl-7H-pyrrolo[2,3-d]pyrimidine] yielded an IC50 of 1 to 10 µM. With COc1ccc(-c2[nH]c(C3(C)CCN(c4ncnc5[nH]c(-c6cnn(C(F)F)c6)cc45)CC3)nc2C)cc1 [P-3153, 6-[1-(difluoromethyl)pyrazol-4-yl]-4-[4-[5-(4-methoxyphenyl)-4-methyl-1H-imidazol-2-yl]-4-methyl-1-piperidyl]-7H-pyrrolo[2,3-d]pyrimidine] the IC50 was 0.0001 to 1 µM. For COc1ccc(-c2[nH]c(C3(C)CCN(c4ncnc5[nH]c(-c6cnn(C(F)F)c6)cc45)CC3)nc2C)cc1C [P-3154, 6-[1-(difluoromethyl)pyrazol-4-yl]-4-[4-[5-(4-methoxy-3-methyl-phenyl)-4-methyl-1H-imidazol-2-yl]-4-methyl-1-piperidyl]-7H-pyrrolo[2,3-d]pyrimidine], the IC50 was 0.0001 to 1 µM. With Cc1nc(C2(C)CCN(c3ncnc4[nH]c(-c5cnn(C(F)F)c5)cc34)CC2)[nH]c1-c1ccc2c(c1)OCO2 [P-3155, 4-[4-[5-(1,3-benzodioxol-5-yl)-4-methyl-1H-imidazol-2-yl]-4-methyl-1-piperidyl]-6-[1-(difluoromethyl)pyrazol-4-yl]-7H-pyrrolo[2,3-d]pyrimidine] the IC50 was 0.0001 to 1 µM. With COc1ccc(-c2[nH]c(C3(C)CCN(c4ncnc5[nH]c(-c6ccc(OC)nc6)cc45)CC3)nc2C)cc1 [P-3156, 4-[4-[5-(4-methoxyphenyl)-4-methyl-1H-imidazol-2-yl]-4-methyl-1-piperidyl]-6-(6-methoxy-3-pyridyl)-7H-pyrrolo[2,3-d]pyrimidine] the IC50 was 0.0001 to 1 µM. Work on COc1ccc(-c2cc3c(N4CCC(C)(c5nc(C)c(-c6ccc(OC)c(C)c6)[nH]5)CC4)ncnc3[nH]2)cn1 [P-3157, 4-[4-[5-(4-methoxy-3-methyl-phenyl)-4-methyl-1H-imidazol-2-yl]-4-methyl-1-piperidyl]-6-(6-methoxy-3-pyridyl)-7H-pyrrolo[2,3-d]pyrimidine] yielded an IC50 of 0.0001 to 1 µM. Compound COc1ccc(-c2cc3c(N4CCC(C)(c5nc(C)c(-c6ccc7c(c6)OCO7)[nH]5)CC4)ncnc3[nH]2)cn1 [P-3158, 4-[4-[5-(1,3-benzodioxol-5-yl)-4-methyl-1H-imidazol-2-yl]-4-methyl-1-piperidyl]-6-(6-methoxy-3-pyridyl)-7H-pyrrolo[2,3-d]pyrimidine] has an IC50 of 0.0001 to 1 µM.
